Test: Pre-formulation telbivudine stability versus pH at elevated temperature
Type: physicochemical
Settings: investigated pH 2-9, 50° C., from assay and thymine content
Protocol: During pre-formulation, telbivudine stability is investigated within a range of pH from 2-9, at elevated temperature 50° C. […] The pH of the oral solution is a highly relevant parameter, due to the influence pH on the retardation of microbial growth in the solution during storage.

## Cc1cn([C@@H]2C[C@@H](O)[C@H](CO)O2)c(=O)[nH]c1=O [telbivudine, β-L-thymidine/2′-deoxy-L-thymidine]
  pH range optimal for drug substance stability: 3-9
